One substance from patent US8597632B2, “Anionic oligosaccharide conjugates” (Glycan Biosciences LLC, priority 2008, dated 2013) can be followed below.

One assay deals with T1, eotaxin-2 (CCL24) (Homo sapiens, UniProt O00175).
T1 construct: host or cells: E. coli
T1 sequence (O00175 27-119): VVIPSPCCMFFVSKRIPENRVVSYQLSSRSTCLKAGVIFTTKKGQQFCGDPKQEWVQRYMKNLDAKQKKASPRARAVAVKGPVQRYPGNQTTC
The assay can be described thus: BIAcore: inhibition of Eotaxin-2 binding to immobilized heparin. The note with it: % relative to heparin concentration required to inhibit chemokine binding by 50%; heparin set at 100%. The text has this:
(§1) The optical phenomenon of surface plasmon resonance is used to monitor physical interactions between molecules. Passing a solution of a potential protein ligand (e.g. IL-4, IL-5, eotaxin-1, eotaxin-2, IL-8 or MCP-1) over a sensor surface to which a target (e.g. heparin) is coupled monitors the real-time binding of protein ligands to the immobilized target. Detection is achieved by measuring refractive index changes very close to the sensor surface. When the refractive index is altered, the angle at which plasmon resonance occurs changes and this change directly correlates with the amount of protein interacting with the surface. A BIAcore 2000 is conveniently used. […]
(§2) Biotinylated heparin is immobilized on the biosensor chip. […] Solutions containing potential protein ligands of interest are injected over the sensor chip surface, and the binding is measured in real time (Fernig, In: Proteoglycan protocols, Ed. R. V. Iozzo, Humana Press, Totowa, N.J., USA, 2001). Baculovirus expressed recombinant human IL-4 (rhIL-4) and baculovirus expressed recombinant human IL-5 (rhIL-5) readily bind to heparin immobilized by this method (see PCT/AU2005/000551). […] Similarly, recombinant human eotaxin-1 (CCL11) expressed in E. coli binds readily to immobilized heparin and binding is specific as there is little eotaxin binding to sensor chips lacking heparin (see 30544601 PCT glycan151). […]

The target of another assay is T2, IL-8 (CXCL8) (Homo sapiens, UniProt P10145).
T2 construct: host or cells: E. coli
T2 sequence (P10145 21-99): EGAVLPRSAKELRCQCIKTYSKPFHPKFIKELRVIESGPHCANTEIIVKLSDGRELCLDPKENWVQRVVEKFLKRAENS
The assay can be described thus: BIAcore: inhibition of IL-8 binding to immobilized heparin. Conditions: % relative to heparin concentration required to inhibit chemokine binding by 50%; heparin set at 100%.
Text: as §1, §2
A general note: In SPR one partner is held on a chip, and binding of the other changes the refractive index at the surface.

The next assay deals with T3, MCP-1 (CCL2) (Homo sapiens, UniProt P13500).
T3 construct: host or cells: E. coli
T3 sequence (P13500 24-99): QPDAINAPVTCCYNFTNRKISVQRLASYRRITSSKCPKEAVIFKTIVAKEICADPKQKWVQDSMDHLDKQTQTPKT
The assay can be described thus: BIAcore: inhibition of MCP-1 binding to immobilized heparin. Conditions: % relative to heparin concentration required to inhibit chemokine binding by 50%; heparin set at 100%.
Text: as §1, §2

Assay [1] addresses T4, recombinant human IL-4 (rhIL-4) (Homo sapiens, UniProt P05112).
T4 construct: host or cells: baculovirus expression system
T4 sequence (P05112 25-153): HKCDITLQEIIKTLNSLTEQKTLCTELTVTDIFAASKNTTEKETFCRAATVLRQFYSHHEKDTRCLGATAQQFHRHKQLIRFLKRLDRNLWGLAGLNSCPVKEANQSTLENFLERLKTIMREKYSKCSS
The assay can be described thus: BIAcore: inhibition of IL-4 binding to a heparin chip. Conditions: End point heparin.
Text: as §1, §2

For assay [2], the target named is T5, recombinant human IL-5 (rhIL-5) (Homo sapiens, UniProt P05113).
T5 construct: host or cells: baculovirus expression system
T5 sequence (P05113 20-134): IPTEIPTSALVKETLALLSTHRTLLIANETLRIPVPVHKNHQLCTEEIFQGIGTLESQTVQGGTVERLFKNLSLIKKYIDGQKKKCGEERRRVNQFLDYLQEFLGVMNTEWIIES
The assay can be described thus: BIAcore: inhibition of IL-5 binding to a heparin chip. Conditions: Biotin-heparin.
Text: as §1, §2

A further assay addresses T6, Human leukocyte elastase (Homo sapiens, UniProt P08246).
T6 sequence (P08246 30-267): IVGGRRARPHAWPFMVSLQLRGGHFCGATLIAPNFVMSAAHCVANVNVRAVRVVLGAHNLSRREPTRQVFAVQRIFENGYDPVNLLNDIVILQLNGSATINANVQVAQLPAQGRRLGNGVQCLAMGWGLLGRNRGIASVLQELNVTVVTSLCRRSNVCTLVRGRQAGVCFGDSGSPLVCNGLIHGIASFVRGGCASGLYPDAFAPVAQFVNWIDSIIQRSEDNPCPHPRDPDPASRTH
The assay can be described thus: Human leukocyte elastase fluorogenic substrate assay. The format is biochemical. Conditions: elastase 5 nM/well, MeOSuc-Ala-Ala-Pro-Val-amido-methylcoumarin 20 μM/well, pH 7.4, 37° C., 60 minutes; read-out: Inhibition of Elastase activity IC50. The procedure:
Elastase is a protein that is a potential target for the treatment of COPD. Elastase assays were performed in 96-well plastic microplates for easy quantification by the fluorescent plate reader. Human leukocyte elastase (5 nM/well) was incubated in the presence ofrabsence of sulfated polysaccharides, with the fluorogenic substrate MeOSuc-Ala-Ala-Pro-Val-amido-methylcoumarin (20 μM/well) in a sodium phosphate buffer, pH 7.4. The mixture was incubated at 37° C. for 60 minutes before the reaction was stopped by the addition of 10 μL/well of […] acetic acid and the mixture transferred to a 96-well microplate with fluorescence being measured using an excitation wavelength of 355 nm and an emission wavelength of 460 nm. Various concentrations of inhibitors were used to allow the calculation of the concentration of anionic oligosaccharide conjugate required to inhibit enzyme activity by 50% (IC50). […] The linked xylopentaose series were not very effective inhibitors of elastase activity. In this assay heparin has an IC50 of approximately 200 nM (Table 6).

One may read the IC50 as the concentration needed to halve the response being measured.

With Heparin, on eotaxin-2 (CCL24), the “Concentration for 50% inhibition of Eotaxin-2 binding to heparin chip, as % of heparin's” value was 100%. Moreover, on IL-8 (CXCL8), the “Concentration for 50% inhibition of chemokine binding relative to heparin” value is 100%. For the same substance, at MCP-1 (CCL2), the “IC50 relative to heparin (% of heparin IC50)” value is on record as 100%. The figures for the half-inhibitory concentration (IC50) (in assay [1]; in assay [2]; on Human leukocyte elastase) were 3300 nM, 37 nM and ~200 nM, respectively.
